Assays:
[1] = Solubility of the compound in PBS buffer and 0.5% DMSO at 200 uM by LC-MS analysis; format: physicochemical
[2] = Metabolic stability in male CD-1 mouse liver microsomes assessed as parent compound remaining measured after 30 mins in presence of NADPH regenerating system by LC-MS analysis; format: ADME, Microsome; conditions: read-out: Stability
in vitro [3] = conditions: male, CD-1, mouse, liver microsomes
[4] = Metabolic stability in human liver microsomes assessed as parent compound remaining measured after 30 mins in presence of NADPH regenerating system by LC-MS analysis; format: ADME, Microsome; conditions: read-out: Stability
[5] = Metabolic stability in human liver microsomes assessed as half life measured after 1 hr in presence of NADPH regenerating system by LC-MS analysis; format: ADME, Microsome
[6] = Metabolic stability in male Sprague-Dawley rat liver microsomes assessed as parent compound remaining measured after 30 mins in presence of NADPH regenerating system by LC-MS analysis; format: ADME, Microsome; conditions: read-out: Stability
[7] = Permeability of the compound in PBS buffer at pH 7.4 at 200 uM measured after 5 hrs by PAMPA assay; format: ADME; conditions: for Papp at 5 h, 200 µM: PAMPA, pH 7.4, read-out: permeability
in vitro [8] = conditions: male, Sprague-Dawley, rat, liver microsomes

Structure (SMILES) | solubility [1] | remaining at 0.5 h [2] [%] | half-life at 1 h (in vitro [3]) [min] | remaining at 0.5 h [4] [%] | half-life [5] [min] | remaining at 0.5 h [6] [%] | Papp at 5 h, 200 µM [7] [×10⁻⁶ cm/s] | half-life at 1 h (in vitro [8]) [min] | permeability ([7]; pampa, pH 7.4, 5 h, 200 µM)
COc1cccc(S(=O)(=O)NCc2cccc(C(NC(=O)c3cccc4c3-c3ccccc3C4=O)C(=O)O)c2)c1 (centres undefined) | soluble | – | – | – | – | – | – | – | –
COc1ccc(S(=O)(=O)NCc2cccc(C(NC(=O)c3cccc4c3-c3ccccc3C4=O)C(=O)O)c2)cc1 (centres undefined) | – | < 3 | 3.6 | – | – | – | – | – | –
CN(C)c1cccc(S(=O)(=O)NCc2cccc([C@@H](NC(=O)c3cccc4c3-c3ccccc3C4=O)C(=O)O)c2)c1 | soluble | – | – | – | – | – | – | – | –
CCOc1ccc(S(=O)(=O)N2CCc3ccc(C(NC(=O)c4cccc5c4-c4cccnc4C5=O)C(=O)O)cc3C2)cc1C#N (centres undefined) | – | 39 | 25 | – | – | – | – | – | –
COc1ccc(S(=O)(=O)N2CCc3ccc(C(NC(=O)c4cccc5c4-c4ccccc4C5=O)C(=O)O)cc3C2)cc1 (centres undefined) | soluble | < 3 | 3.8 | – | – | – | – | – | Permeable
CCOc1ccc(S(=O)(=O)N2CCc3ccc(C(NC(=O)c4cccc5c4-c4ccccc4C5F)C(=O)O)cc3C2)cc1C#N (centres undefined) | – | 19 | 12 | – | – | – | – | – | –
CCOc1ccc(S(=O)(=O)N2CCc3ccc(C(NC(=O)c4cccc5c4-c4ccccc4C5=O)C(=O)O)cc3C2)cc1C#N (centres undefined) | – | 3 | 3.8 | < 3 | 5.1 | 78 | – | 99 | –
CCOc1ccc(S(=O)(=O)N2CCc3ccc(C(NC(=O)c4cccc5c4-c4ccccc4C5)C(=O)O)cc3C2)cc1C#N (centres undefined) | – | < 3 | 4.7 | – | – | – | – | – | –

Now from value to compound:

solubility [1] | remaining at 0.5 h [2] [%] | half-life at 1 h (in vitro [3]) [min] | remaining at 0.5 h [4] [%] | half-life [5] [min] | remaining at 0.5 h [6] [%] | Papp at 5 h, 200 µM [7] [×10⁻⁶ cm/s] | half-life at 1 h (in vitro [8]) [min] | permeability ([7]; pampa, pH 7.4, 5 h, 200 µM) | Structure (SMILES)
– | < 3 | 5.4 | – | – | – | – | – | – | Cn1c2ccccc2c2c(C(=O)NC(C(=O)O)c3ccc4c(c3)CN(S(=O)(=O)c3cccc(Br)c3)CC4)cccc21 (centres undefined)
– | 22 | 15 | 89 | 200 | 92 | 2.2 | 400 | – | Cn1c2ccccc2c2c(C(=O)NC(C(=O)O)c3ccc4c(c3)CN(S(=O)(=O)c3cccc(C#N)c3)CC4)cccc21 (centres undefined)
– | 8 | 8 | 66 | 47 | 86 | 4.7 | 280 | – | CCOc1ccc(S(=O)(=O)N2CCc3ccc(C(NC(=O)c4cccc5c4c4ccccc4n5C)C(=O)O)cc3C2)cc1C#N (centres undefined)
– | < 3 | 3.2 | < 3 | 4.5 | 77 | – | 78 | – | N#Cc1cc(S(=O)(=O)N2CCc3ccc(C(NC(=O)c4cccc5c4-c4ccccc4C5=O)C(=O)O)cc3C2)ccc1F (centres undefined)
– | 0 | 3.3 | – | – | – | – | – | – | O=C(NC(C(=O)O)c1ccc2c(c1)CN(S(=O)(=O)c1cccc(Br)c1)CC2)c1cccc2c1-c1ccccc1C2=O (centres undefined)
– | 16 | 13 | 64 | 51 | 86 | 4.7 | 240 | – | Cn1c2ccccc2c2c(C(=O)NC(C(=O)O)c3ccc4c(c3)CN(S(=O)(=O)c3ccc(F)c(C#N)c3)CC4)cccc21 (centres undefined)
– | 7.5 | 6.1 | < 3 | 6.1 | 83 | – | 130 | – | N#Cc1cccc(S(=O)(=O)N2CCc3ccc(C(NC(=O)c4cccc5c4-c4ccccc4C5=O)C(=O)O)cc3C2)c1 (centres undefined)
– | 3.5 | 4.5 | – | – | – | – | – | – | COc1ccc(S(=O)(=O)N2CCc3ccc(C(NC(=O)c4cccc5c4-c4ccccc4C5=O)C(=O)O)cc3C2)cc1C#N (centres undefined)

From ChEMBL document CHEMBL6092188, “Structure-Guided Conformational Restriction Leading to High-Affinity, Selective, and Cell-Active Tetrahydroisoquinoline-Based Noncovalent Keap1-Nrf2 Inhibitors” (J Med Chem, 2024)
